Experimental findings from patent publication US12139499B2, “Heteroaryl compounds for treating Huntington's disease” (PTC THERAPEUTICS, INC., priority 2018, dated 2024) are described below.

The test system of the test is Endogenous Huntingtin Protein. The test can be described thus: Endogenous Huntingtin Protein Assay (ELISA-based MSD electrochemiluminescence). The test is classed as cell-based. The following applies: Table 1. Put shortly:
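Huntingtin was captured overnight at 4 °C on plates coated with 1 μg/mL MW1 (polyQ-expanded) or MAB2166 antibody and BSA-blocked. Detection used a rabbit monoclonal and then a SULFO-TAG goat anti-rabbit antibody (0.25 μg/mL, 1 h each, room temperature). Signal was read by electrochemiluminescence.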
A general note: An ELISA detects its analyte on a solid surface through an enzyme-linked reagent.

Structures are written as SMILES. Where only a bound is given, the exact number is not on record here.

Consider `Cc1nc2c(C#N)cc(-c3ncc4nc(N(C)C5CC6(C)CC[C@](C)(C5)N6)sc4n3)cc2o1` (stereo partly drawn) [Compound 290, 6-(2-{[(1R)-1,5-dimethyl-8-azabicyclo[3.2.1]octan-3-yl](methyl)amino}[1,3]thiazolo[5,4-d]pyrimidin-5-yl)-2-methyl-1,3-benzoxazole-4-carbonitrile], for which the IC50 (commonly the point on the concentration scale where inhibition reaches its midpoint) is at most 100 nM.

Consider `Cc1cn2cc(-c3ccc4nc(N(C)C5CC6(C)CCC(C)(C5)N6)sc4n3)cc(C#N)c2n1` [Compound 291, 6-(2-{[(1R,3s,5S)-1,5-dimethyl-8-azabicyclo[3.2.1]octan-3-yl](methyl)amino}[1,3]thiazolo[5,4-b]pyridin-5-yl)-2-methylimidazo[1,2-a]pyridine-8-carbonitrile], for which the IC50 was at most 100 nM. As for `Cc1cn2cc(-c3ccc4nc(N(C)C5CC6(C)CCC(C)(C5)N6)sc4n3)cc(F)c2n1` [Compound 292, N-[(1R,3s,5S)-1,5-dimethyl-8-azabicyclo[3.2.1]octan-3-yl]-5-(8-fluoro-2-methylimidazo[1,2-a]pyridin-6-yl)-N-methyl[1,3]thiazolo[5,4-b]pyridin-2-amine], the IC50 is at most 100 nM. `CN(c1nc2ccc(-c3cc(C#N)c4nn(C)cc4c3)nc2s1)C1CC2(C)CCC(C)(C1)N2` [Compound 293, 5-(2-{[(1R,3s,5S)-1,5-dimethyl-8-azabicyclo[3.2.1]octan-3-yl](methyl)amino}[1,3]thiazolo[5,4-b]pyridin-5-yl)-2-methyl-2H-indazole-7-carbonitrile] displayed an IC50 of at most 100 nM. In the case of `CN(c1nc2ccc(-c3cc(F)c4nn(C)cc4c3)nc2s1)C1CC2(C)CCC(C)(C1)N2` [Compound 294, N-[(1R,3s,5S)-1,5-dimethyl-8-azabicyclo[3.2.1]octan-3-yl]-5-(7-fluoro-2-methyl-2H-indazol-5-yl)-N-methyl[1,3]thiazolo[5,4-b]pyridin-2-amine], the IC50 fell in the range of 100 to 500 nM. As to `CN(c1nc2ccc(-c3cc(F)c4nn(C)cc4c3)nc2s1)C1CC2CCCC(C1)N2` (centres unmarked) [Compound 295, N-(9-azabicyclo[3.3.1]nonan-3-yl)-5-(7-fluoro-2-methyl-2H-indazol-5-yl)-N-methyl[1,3]thiazolo[5,4-b]pyridin-2-amine], the IC50 fell in the range of 100 to 500 nM.

`Cc1cn2cc(-c3cc4sc(N(C)C5CC(C)(C)NC(C)(C)C5)nc4cn3)nc2c(C)n1` [Compound 296, 6-(6,8-dimethylimidazo[1,2-a]pyrazin-2-yl)-N-methyl-N-(2,2,6,6-tetramethylpiperidin-4-yl)[1,3]thiazolo[4,5-c]pyridin-2-amine] came in with an IC50 of at most 100 nM. `Cc1cn2cc(-c3cc4sc(N(C)C5CC(C)(C)NC(C)(C)C5)nc4cn3)cc2c(C)n1` [Compound 297, 6-(1,3-dimethylpyrrolo[1,2-a]pyrazin-7-yl)-N-methyl-N-(2,2,6,6-tetramethylpiperidin-4-yl)[1,3]thiazolo[4,5-c]pyridin-2-amine] returned an IC50 of at most 100 nM. In turn, `CN(c1nc2cnc(-c3cc(F)c4nn(C)cc4c3)cc2s1)C1CC2(C)CCC(C)(C1)N2` [Compound 298, N-[(1R,3s,5S)-1,5-dimethyl-8-azabicyclo[3.2.1]octan-3-yl]-6-(7-fIuoro-2-methyl-2H-indazol-5-yl)-N-methyl[1,3]thiazolo[4,5-c]pyridin-2-amine] returned an IC50 of at most 100 nM.

Consider `Cc1cn2cc(-c3cc4sc(N(C)C5CC6(C)CCC(C)(C5)N6)nc4cn3)cc(C)c2n1` [Compound 299, N-[(1R,3s,5S)-1,5-dimethyl-8-azabicyclo[3.2.1]octan-3-yl]-6-(2,8-dimethylimidazo[1,2-a]pyridin-6-yl)-N-methyl[1,3]thiazolo[4,5-c]pyridin-2-amine], for which the IC50 was at most 100 nM.

In turn, `Cc1cn2cc(-c3cc4sc(N(C)C5CC6(C)CCC(C)(C5)N6)nc4cn3)ccc2n1` [Compound 300, N-[(1R,3s,5S)-1,5-dimethyl-8-azabicyclo[3.2.1]octan-3-yl]-N-methyl-6-(2-methylimidazo[1,2-a]pyridin-6-yl)[1,3]thiazolo[4,5-c]pyridin-2-amine] showed an IC50 of at most 100 nM.
